Laboratory results as given in patent EP0606463B1, “NEUROMEDIN B RECEPTOR ANTAGONISTS” (The Administrators of The Tulane Educational Fund, priority 1992, dated 1994).
Where two headings read alike, the source gives them in different places. One block for each molecule: values may come before it. Where a SMILES comes first, the peptide text is derived from it. Bridges are numbered along the chain shown (N, C = ends). [ ]: non-standard residue; d: D form. 2Nal = N[C@@H](Cc1ccc2ccccc2c1)C(=O)O; d2Nal = N[C@H](Cc1ccc2ccccc2c1)C(=O)O

How the values were obtained:
[1] = biological target: T1, somatostatin receptors on AR 42J cells (Rattus norvegicus, UniProt P30680); test: Somatostatin membrane receptor assay (AR 42J cell membranes); assay type: binding; details: for inhibition of binding of ^125I-[Tyr^11]SS-14 to somatostatin receptors: AR 42J cells, concentrations up to 10 µM
T1 construct: endogenous in cells; host or cells: rat AR 42J pancreatic acinar cells (membranes)

NMB Receptor = biological target: T2, NMB Receptor (Rattus norvegicus, UniProt P24053); test: [3H]inositol phosphates (IP) in NMB-R transfected cells; assay type: cell-based
T2 construct: a full length NMB-preferring bombesin receptor clone generated from rat esophagus; expressed in transfected cells; host or cells: BALB 3T3 cells
T2 sequence (P24053 1-390): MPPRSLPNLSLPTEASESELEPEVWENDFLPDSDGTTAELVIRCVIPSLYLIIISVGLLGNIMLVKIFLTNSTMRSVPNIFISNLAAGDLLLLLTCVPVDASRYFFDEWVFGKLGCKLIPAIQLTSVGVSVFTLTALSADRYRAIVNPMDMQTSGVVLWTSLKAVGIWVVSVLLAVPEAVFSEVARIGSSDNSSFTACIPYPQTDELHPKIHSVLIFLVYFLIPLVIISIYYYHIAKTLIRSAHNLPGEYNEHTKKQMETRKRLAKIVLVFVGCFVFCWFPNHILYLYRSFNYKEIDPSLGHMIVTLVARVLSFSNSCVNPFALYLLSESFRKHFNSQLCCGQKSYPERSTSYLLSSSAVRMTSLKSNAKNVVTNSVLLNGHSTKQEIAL
Description: As described previously [Wada, E., et al. Neuron 6:421 (1991)], BALB 3T3 cells expressing a stably transfected rat NMB receptor (NMB-R transfected cells) were obtained using calcium phosphate precipitation of a full length NMB-preferring bombesin receptor clone generated from rat esophagus and subcloned into a modified version of the pCD2 plasmid. Cells were passaged every 3-4 days at confluence, using 0.1% trypsin in 1 mM EDTA. Rat glioblastoma C-6 tumor cells were maintained similarly and were passaged weekly at confluence. Both cell lines were cultured at 37°C in a 5% CO2 atmosphere. Rat AR 42J pancreatic acinar cells were cultured in Dulbecco's modified Eagle's medium (DMEM) without antibiotics and supplemented with 10% (vol/vol) fetal calf serum. The incubation atmosphere consisted of 10% CO2-90% humidified air at 37°C.
(§1) Total phosphoinositides in C-6 cells and in NMB-R transfected cells were determined as described previously, with minor modifications [Benya, R. V. et al. Mol. Pharmacol. 42:1058 (1992); and Wang, L-H. et al. Biochem. J. 286:641 (1992)]. Cells were grown to confluence in 24-well plates and then loaded with 100 µCi/ml myo-[2-^3H]inositol in Dulbecco's modified essential medium with 2% fetal bovine serum at 37°C for 48 hrs. Cells were washed and incubated in phosphoinositide buffer (standard buffer additionally containing 10 mM LiCl, 20 mM HEPES, 2 mM CaCl2, 2% BSA, and 1.2 mM MgSO4) for 15 min and then for 60 min at 37°C with agonists at various concentrations or with 3 nM NMB (a half-maximal effective concentration) and possible antagonists at different concentrations. Reactions were halted using ice-cold 1% HCl in methanol, and the inositol phosphates (IP) were isolated as described previously [Bologna, M. et al. Cancer 63:1714 (1989); and Endo, T. et al. J. Endocrinol. 131:313 (1991)]. Briefly, after loading of the anion exchange column, free [^3H]glycerophosphorylinositol was removed by washing with 5 mM disodium tetraborate in 60 mM sodium formate. Total [^3H]inositol phosphates were then eluted using 100 mM formic acid in 1.0 M ammonium formate as described previously [Benya, R. V. et al. Mol. Pharmacol. 42:1058 (1992); and Wang, L-H. et al. Biochem. J. 286:641 (1992)].

mu opioid receptors = biological target: T3, mu opioid receptors (Rattus norvegicus, UniProt P33535); test: mu opioid membrane assay ([3H]DAGO, rat forebrain membranes); assay type: binding; details: for inhibition of binding to mu opioid receptors: rat forebrain membranes, concentrations up to 10 µM
T3 construct: rat forebrain (TRH, mu and delta opioid membrane assays); from tissue; host or cells: rat forebrain membranes

[2] = biological target: T4, NMB receptors on C-6 glioblastoma cells (Rattus norvegicus, UniProt P24053); test: NMB-stimulated [3H]IP in C-6 glioblastoma cells; assay type: cell-based; details: C-6 glioblastoma cells; agonist without analog; basal 7.2±1.0
T4 construct: endogenous in cells; host or cells: rat glioblastoma C-6 cells
T4 sequence (P24053 1-390): T2 sequence (P24053 1-390)
Description: as §1, with “for 60 min at 37°C with agonists at various concentrations or with 3 nM NMB (a half-maximal effective concentration) and possible antagonists at different concentrations.” left out

[3] = biological target: T5, GRP receptors on rat pancreatic acini (Rattus norvegicus, UniProt P52500); test: Binding of 125I-[Tyr4]bombesin to pancreatic acini; details: read-out: Ki (nM) ^123I[Tyr^4]BnBinding
T5 construct: from tissue; host or cells: dispersed pancreatic acini
Description: Nonsaturable binding was < 10% of total binding in all experiments.

[4] = biological target: T6, GRP receptors on AR 42J cell membranes (Rattus norvegicus, UniProt P52500); test: GRP membrane receptor assay (AR 42J cell membranes); assay type: binding; details: method of Cheng, unit inferred, read-out: affinity, ^125I-[Tyr^4]Bn
T6 construct: endogenous in cells; host or cells: rat AR 42J pancreatic acinar cells (membranes)

GRP Receptor = biological target: T7, GRP Receptor (Rattus norvegicus, UniProt P52500); test: Amylase release from rat pancreatic acini; assay type: cell-based
T7 construct: from tissue; host or cells: dispersed pancreatic acini

[5] = biological target: T8, NMB receptors on C-6 cells (Rattus norvegicus, UniProt P24053); test: Binding of 125I-[D-Tyr0]NMB to C-6 glioblastoma cells; details: NMB Receptor, Ki by method of Cheng, read-out: Ki(nM) ^123I-NMB Binding
T8 construct: endogenous in cells; host or cells: rat glioblastoma C-6 cells
Description: Binding studies using rat glioblastoma C-6 or NMB-R transfected cells were performed as described previously [Benya, R. V. et al. Mol. Pharmacol. 42:1058 (1992); and Wang, L-H. et al. Biochem. J. 286:641 (1992)] by suspending disaggregated cells in binding buffer, which was composed of standing buffer ([…], 7.7 mM KCl, 1.0 mM EGTA, 0.02% soybean trypsin inhibitor) additionally containing 50 mM HEPES, 1 mM MgCl2, 1.5 mM CaCl2, 2.2 mM KH2PO4, 0.015% glutamine, and 0.2% BSA (w\v) (pH 7.4). Incubations contained 75 pM ^125I-[D-Tyr^0]NMB and 15 x 10^6 C-6 cells/ml or 2 x 10^6 NMB-R transfected cells/ml, for 60 min at 22°C. Nonsaturable binding of ^125I-[D-Tyr^0]NMB was te amount of radioactivity associated with C-6 cells or NMB-R transfected cells when the incubation mixture contained […]. Nonsaturable binding was < 15% of total binding in all experiments; all values are reported herein as saturable binding (i.e., total minus nonsaturable binding).

rat NMB receptor = biological target: T9, rat NMB receptor (Rattus norvegicus, UniProt P24053); test: Binding of 125I-[D-Tyr0]NMB to NMB-R transfected BALB 3T3 cells
T9 construct: a full length NMB-preferring bombesin receptor clone generated from rat esophagus; expressed in transfected cells; host or cells: BALB 3T3 cells
T9 sequence (P24053 1-390): T2 sequence (P24053 1-390)
Description: Cells were passaged every 3-4 days at confluence, using 0.1% trypsin in 1 mM EDTA. Rat glioblastoma C-6 tumor cells were maintained similarly and were passaged weekly at confluence. Both cell lines were cultured at 37°C in a 5% CO2 atmosphere. Rat AR 42J pancreatic acinar cells were cultured in Dulbecco's modified Eagle's medium (DMEM) without antibiotics and supplemented with 10% (vol/vol) fetal calf serum. The incubation atmosphere consisted of 10% CO2-90% humidified air at 37°C.

[6] = biological target: T10, NMB receptors on rat olfactory bulb membranes (Rattus norvegicus, UniProt P24053); test: NMB membrane receptor assay (rat olfactory bulb membranes); assay type: binding; details: Rat Olfactory bulb membranes; method of Cheng; unit inferred; read-out: affinity, ^125I-NMB
T10 construct: Membranes were prepared from rat olfactory bulb (NMB membrane receptor assay); from tissue; host or cells: rat olfactory bulb membranes
T10 sequence (P24053 1-390): T2 sequence (P24053 1-390)

[7] = NMB Receptor, Transfected Cells, read-out: IC50 (nM) NMB-stimulated [^3H]IP
[8] = NMB Receptor, Transfected Cells, Ki by method of Cheng, read-out: Ki (nM) ^123I-NMB Binding

T1 sequence (P30680 whole entry): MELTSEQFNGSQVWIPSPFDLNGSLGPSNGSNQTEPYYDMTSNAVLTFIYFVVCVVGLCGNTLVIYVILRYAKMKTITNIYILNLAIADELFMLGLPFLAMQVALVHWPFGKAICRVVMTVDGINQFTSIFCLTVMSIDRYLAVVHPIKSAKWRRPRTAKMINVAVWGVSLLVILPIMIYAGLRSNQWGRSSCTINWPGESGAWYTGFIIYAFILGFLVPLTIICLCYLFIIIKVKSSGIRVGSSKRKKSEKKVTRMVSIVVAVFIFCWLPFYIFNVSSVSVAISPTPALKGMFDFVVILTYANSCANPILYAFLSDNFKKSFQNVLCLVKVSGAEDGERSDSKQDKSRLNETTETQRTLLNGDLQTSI
T7 sequence (P52500 whole entry): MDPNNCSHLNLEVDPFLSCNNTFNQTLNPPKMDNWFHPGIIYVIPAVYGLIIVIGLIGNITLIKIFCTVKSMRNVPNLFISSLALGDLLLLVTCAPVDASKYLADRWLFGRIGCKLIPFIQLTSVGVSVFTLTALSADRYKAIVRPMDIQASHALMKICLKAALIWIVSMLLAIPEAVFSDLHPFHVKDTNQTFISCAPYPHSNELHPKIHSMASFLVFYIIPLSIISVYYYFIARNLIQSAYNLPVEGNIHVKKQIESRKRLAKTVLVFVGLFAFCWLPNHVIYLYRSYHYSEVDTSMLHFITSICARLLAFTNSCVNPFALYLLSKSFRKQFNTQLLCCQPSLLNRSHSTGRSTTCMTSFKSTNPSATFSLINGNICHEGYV
T3 sequence (P33535 whole entry): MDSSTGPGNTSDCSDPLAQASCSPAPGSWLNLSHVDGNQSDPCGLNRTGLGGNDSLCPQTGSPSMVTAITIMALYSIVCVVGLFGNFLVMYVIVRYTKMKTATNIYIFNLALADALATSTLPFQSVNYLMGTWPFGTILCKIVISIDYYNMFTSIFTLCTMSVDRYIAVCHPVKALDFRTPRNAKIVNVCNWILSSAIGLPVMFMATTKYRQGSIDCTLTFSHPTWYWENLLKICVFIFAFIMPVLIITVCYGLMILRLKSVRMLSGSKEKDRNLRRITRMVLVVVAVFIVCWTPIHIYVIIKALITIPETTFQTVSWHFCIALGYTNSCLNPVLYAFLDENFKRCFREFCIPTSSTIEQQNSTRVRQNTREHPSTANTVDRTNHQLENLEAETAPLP
T5 sequence (P52500 whole entry): as the sequence (P52500 whole entry) above
T6 sequence (P52500 whole entry): as above

SMILES: CSCC[C@H](NC(=O)[C@H](Cc1ccccc1)NC(=O)[C@H](Cc1c[nH]cn1)NC(=O)CNC(=O)[C@@H](NC(=O)[C@H](C)NC(=O)[C@H](Cc1c[nH]c2ccccc12)NC(=O)[C@H](CC(C)C)NC(=O)[C@H](CC(N)=O)NC(=O)CN)[C@@H](C)O)C(N)=O [NMB, neuromedin B]
- inhibition of binding of ^125I-[Tyr^11]SS-14 to somatostatin receptors [1]: Neither NMB nor GRP at concentrations up to 10 µ M inhibited binding
- increase in [^3H]IP caused by 3 nM NMB (NMB Receptor; NMB-R transfected cells): 14 fold
- inhibition of binding to mu opioid receptors (mu opioid receptors): Neither NMB nor GRP at concentrations up to 10 µ M inhibited binding
- [^3H]IP, NMB (10 nM) Alone [2]: 21.0 ± 1.8 dpm x 10^3

SMILES: CSCC[C@H](NC(=O)[C@H](CC(C)C)NC(=O)[C@H](Cc1c[nH]cn1)NC(=O)CNC(=O)[C@@H](NC(=O)[C@H](C)NC(=O)[C@H](Cc1c[nH]c2ccccc12)NC(=O)[C@H](Cc1c[nH]cn1)NC(=O)[C@H](CC(N)=O)NC(=O)CNC(=O)[C@H](CCCNC(=N)N)NC(=O)[C@@H]1CCCN1C(=O)[C@H](Cc1ccc(O)cc1)NC(=O)[C@H](CCSC)NC(=O)[C@H](CCCCN)NC(=O)[C@@H](NC(=O)[C@H](CC(C)C)NC(=O)[C@@H](NC(=O)[C@@H](NC(=O)CNC(=O)CNC(=O)CNC(=O)[C@H](C)NC(=O)[C@@H]1CCCN1C(=O)[C@H](CC(C)C)NC(=O)[C@@H]1CCCN1C(=O)[C@@H](N)C(C)C)[C@@H](C)O)C(C)C)[C@@H](C)O)C(C)C)C(N)=O [GRP, gastrin-releasing peptide]
- inhibition of binding of ^125I-[Tyr^11]SS-14 to somatostatin receptors [1]: Neither NMB nor GRP at concentrations up to 10 µ M inhibited binding
- inhibition of binding to mu opioid receptors (mu opioid receptors): Neither NMB nor GRP at concentrations up to 10 µ M inhibited binding

SMILES: CC(C)[C@@H]1NC(=O)[C@H](CCCCN)NC(=O)[C@@H](Cc2c[nH]c3ccccc23)NC(=O)[C@H](Cc2ccc(O)cc2)NC(=O)[C@@H](NC(=O)[C@H](N)Cc2ccc3ccccc3c2)CSSC[C@@H](C(=O)N[C@H](C(N)=O)[C@@H](C)O)NC1=O [Analog #5, [Thr^8]-cyclo-SS-octa]
- Ki ([1]; AR 42J Cell Membranes, method of Cheng, unit inferred, read-out: affinity, ^125I-[Tyr^11]SS-14): 0.00029 ± 3e-05 µM
- IC50 (NMB Receptor; [7]): > 10000 nM
- effect on NMB-stimulated increase in [^3H]IP (NMB Receptor; NMB-R transfected cells, 3 nM NMB, peptide 10 µM): no activity
- Ki (mu opioid receptors; Rat Forebrain membranes, method of Cheng, unit inferred, read-out: affinity, [^3H]DAGO): 0.002 ± 0.0014 µM
- Ki [3]: > 10000 nM
- Ki [4]: 3.9 ± 1.2 µM
- IC50 (GRP Receptor): > 10000 nM
- Ki [5]: 3790 ± 1080 nM
- Ki (rat NMB receptor; K1, NMB-R transfected cells, summary of Table 1): 14000 to 19000 nM
- Ki (rat NMB receptor; [8]): 14800 ± 2650 nM
- Ki [6]: 0.8 ± 0.2 µM

- IC50 (NMB Receptor; [7]): 2880 ± 188 nM
- IC50 (NMB Receptor; NMB-R transfected cells, summary of Table 1, read-out: IC50 of NMB-stimulated increases in [^3H]IP): 3000 to 6600 nM
- NMB-R Transfected Cells [^3H]IP Alone (10 µ M) (NMB Receptor; analog 10 µM alone, no-additive control 13 ± 3): 11 ± 1 dpm x 10^3
- NMB-R Transfected Cells [^3H]IP Plus NMB (3 nM) (NMB Receptor; analog 10 µM plus NMB 3 nM, NMB without analog 186 ± 58): 65 ± 15 dpm x 10^3
- Ki [3]: > 10000 nM
- IC50 (GRP Receptor): > 10000 nM
- Rat Pancreatic Acini Amylase Release Alone (10µM) (GRP Receptor; analog 10 µM alone, no-additive control 4 ± 1): 3 ± 1 % total
- Rat Pancreatic Acini Amylase Release Plus Bn(0.3 nM) (GRP Receptor; analog 10 µM plus Bn 0.3 nM, Bn without analog 15 ± 1): 15 ± 1 % total
- Ki [5]: 997 ± 76 nM
- Ki (rat NMB receptor; [8]): 697 ± 64 nM
- Ki (rat NMB receptor; NMB-R transfected cells, summary of Table 1, read-out: K1): 700 to 800 nM
- fold by which cyclo SS-octa was more potent than the analog (rat NMB receptor; inhibition of ^125I-[Tyr^0]NMB binding to NMB-R transfected cells): 4 fold
SMILES: NCCCC[C@@H]1NC(=O)[C@@H](Cc2c[nH]c3ccccc23)NC(=O)[C@H](Cc2ccc(O)cc2)NC(=O)[C@@H](NC(=O)[C@H](N)Cc2ccc3ccccc3c2)CSSC[C@@H](C(=O)N[C@@H](Cc2ccc3ccccc3c2)C(N)=O)NC(=O)[C@H](Cc2ccc3ccccc3c2)NC1=O [Analog #3, [Nal^6]-cyclo SS-octa] (H-[d2Nal]CY[dW]K[2Nal]C[2Nal]-NH2; disulfide 2-7)
